From ChEMBL document CHEMBL1131435, “Biphenylsulfonamide endothelin antagonists: structure-activity relationships of a series of mono- and disubstituted analogues and pharmacology of the orally active endothelin antagonist 2'-amino-N- (3,4-dimethyl-5-isoxazolyl)-4'-(2-methylpropyl)[1, 1'-biphenyl]-2-sulfonamide (BMS-187308)” (J Med Chem, 1998)
Where a SMILES comes first, the peptide text is derived from it.

Columns and labels:
[1] = biological target: T1, Endothelin-1 receptor (Rattus norvegicus, UniProt P26684); assay: Ability to inhibit binding of [125I]ET1 to membranes prepared from A10 rat thoracic aorta smooth muscle Endothelin A receptor; type: tissue-based
T1 sequence (P26684 whole entry): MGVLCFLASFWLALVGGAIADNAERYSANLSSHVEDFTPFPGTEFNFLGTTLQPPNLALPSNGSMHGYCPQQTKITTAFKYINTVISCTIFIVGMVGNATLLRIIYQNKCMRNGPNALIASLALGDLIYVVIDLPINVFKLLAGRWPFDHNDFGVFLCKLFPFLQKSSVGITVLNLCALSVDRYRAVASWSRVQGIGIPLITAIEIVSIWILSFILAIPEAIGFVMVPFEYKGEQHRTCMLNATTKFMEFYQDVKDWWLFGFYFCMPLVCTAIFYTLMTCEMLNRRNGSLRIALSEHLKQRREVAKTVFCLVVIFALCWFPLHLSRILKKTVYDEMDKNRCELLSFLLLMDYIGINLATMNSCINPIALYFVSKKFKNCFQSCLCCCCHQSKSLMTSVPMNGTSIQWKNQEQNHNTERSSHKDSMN

[2] = biological target: T2, Endothelin receptor type B (Rattus norvegicus, UniProt P21451); assay: Ability to inhibit binding of [125I]-ET-1 to membranes prepared from […] rat cerebellum (Endothelin B receptor); type: tissue-based
T2 sequence (P21451 whole entry): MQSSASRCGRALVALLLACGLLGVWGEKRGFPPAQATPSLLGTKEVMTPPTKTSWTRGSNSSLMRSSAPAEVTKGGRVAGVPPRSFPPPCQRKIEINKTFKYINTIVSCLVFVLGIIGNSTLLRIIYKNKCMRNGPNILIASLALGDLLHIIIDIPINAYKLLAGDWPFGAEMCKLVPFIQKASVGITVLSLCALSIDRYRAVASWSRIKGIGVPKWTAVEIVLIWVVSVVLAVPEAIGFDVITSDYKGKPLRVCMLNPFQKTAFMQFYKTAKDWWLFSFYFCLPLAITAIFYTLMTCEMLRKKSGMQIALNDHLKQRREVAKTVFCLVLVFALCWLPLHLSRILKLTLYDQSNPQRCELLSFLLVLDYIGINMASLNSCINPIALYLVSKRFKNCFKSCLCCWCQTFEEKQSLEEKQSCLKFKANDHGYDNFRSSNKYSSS

| Compound | Ki [1] [nM] | Ki [2] [nM] |
| --- | --- | --- |
| Cc1noc(NS(=O)(=O)c2ccccc2-c2ccc(CC(C)C)cc2)c1C | 18 | 1700 |
| Cc1noc(NS(=O)(=O)c2ccccc2-c2ccc(CC(C)C)cc2N)c1C | 4.7 | 1700 |
| CCCNc1cc(CC(C)C)ccc1-c1ccccc1S(=O)(=O)Nc1onc(C)c1C | 29 | 3700 |
| Cc1noc(NS(=O)(=O)c2ccccc2Oc2ccccc2)c1C | 2100 |  |
| COc1cc(CC(C)C)ccc1-c1ccccc1S(=O)(=O)Nc1onc(C)c1C | 74 | 54000 |
| Cc1noc(NS(=O)(=O)c2ccc(NC(=O)CN)cc2-c2ccc(CC(C)C)cc2)c1C | 1200 | 7400 |
| Cc1noc(NS(=O)(=O)c2ccccc2-c2ccc(CC(C)C)cc2C(=O)O)c1C |  | 26000 |
| Cc1cccc(-c2ccc(CC(C)C)cc2)c1S(=O)(=O)Nc1onc(C)c1C | 1300 | 19000 |
| Cc1noc(NS(=O)(=O)c2ccccc2-c2ccc(N(C)C(C)C)cc2)c1C | 60 | 20000 |
| Cc1noc(NS(=O)(=O)c2cc(O)ccc2-c2ccc(CC(C)C)cc2)c1C | 500 | 24000 |
| CNC(=O)Nc1cc(CC(C)C)ccc1-c1ccccc1S(=O)(=O)Nc1onc(C)c1C | 43 | 5400 |
| Cc1noc(NS(=O)(=O)c2cccc(OCCO)c2-c2ccc(CC(C)C)cc2)c1C | 2.7 | 2300 |
| CCCc1ccc(-c2ccccc2S(=O)(=O)Nc2onc(C)c2C)cc1 | 28 | 15000 |
| CC(=O)Nc1ccc(S(=O)(=O)Nc2onc(C)c2C)c(-c2ccc(CC(C)C)cc2)c1 |  | 9800 |
| CC(C)Cc1ccc(-c2ccccc2S(=O)(=O)Nc2ccc(Cl)nn2)cc1 | 400 | 44000 |
| CCNc1cc(CC(C)C)ccc1-c1ccccc1S(=O)(=O)Nc1onc(C)c1C | 6.3 | 1400 |
| Cc1[n-][o+]c(NS(=O)(=O)c2ccccc2-c2ccc(CC(C)C)cc2)c1[N+](=O)[O-] |  | 30000 |
| Cc1noc(NS(=O)(=O)c2ccccc2C(F)(F)F)c1C | 700 |  |
| Cc1noc(NS(=O)(=O)c2ccccc2-c2ccccc2CO)c1C | 40 | > 200000 |
| Cc1noc(NS(=O)(=O)c2ccccc2-c2ccc(CC(C)C)cc2N(C)C)c1C | 330 | > 100000 |
| Cc1noc(NS(=O)(=O)c2ccccc2-c2ccc(CC(C)C)cc2NC(C)C)c1C | 34 | 2900 |

| Compound | Ki [1] [nM] | Ki [2] [nM] |
| --- | --- | --- |
| Cc1noc(NS(=O)(=O)c2ccccc2-c2ccc(CC(C)C)cc2CNC=O)c1C | 2 | 1200 |
| CCOC(=O)c1c(C)noc1NS(=O)(=O)c1ccccc1-c1ccc(CC(C)C)cc1 | 7200 | 42000 |
| Cc1[n-][o+]c(NS(=O)(=O)c2ccccc2[N+](=O)[O-])c1C | 3500 |  |
| CCCCc1ccc(-c2ccccc2S(=O)(=O)Nc2onc(C)c2C)cc1 | 37 | 1900 |
| Cc1noc(NS(=O)(=O)c2ccccc2-c2ccc(CC(C)C)cc2)c1Cc1ccccc1 | 6400 | > 200000 |
| Cc1noc(NS(=O)(=O)c2ccccc2-c2ccc(C(C)(C)C)cc2)c1C | 61 | 15000 |
| Cc1noc(NS(=O)(=O)c2ccccc2-c2ccccc2)c1C |  | > 200000 |
| Cc1noc(NS(=O)(=O)c2ccccc2C(C)C)c1C | 600 |  |
| Cc1noc(NS(=O)(=O)c2ccc(NC(=O)c3ccccc3)cc2-c2ccc(CC(C)C)cc2)c1C | 5800 | 38000 |
| Cc1noc(NS(=O)(=O)c2ccccc2-c2ccc(NC(C)C)cc2)c1C | 50 | 17000 |
| Cc1noc(NS(=O)(=O)c2ccccc2-c2ccc(CC(C)C)cc2NCCO)c1C | 6.4 | 1600 |
| Cc1noc(NS(=O)(=O)c2ccccc2-c2ccc(CCC(C)C)cc2)c1C | 80 | 30000 |
| Cc1noc(NS(=O)(=O)c2ccccc2-c2ccc(OC(C)C)cc2)c1C | 17 | 1500 |
| Cc1noc(NS(=O)(=O)c2ccccc2-c2ccc(OCC(C)C)cc2)c1C | 32 | 2800 |
| Cc1noc(NS(=O)(=O)c2ccccc2-c2ccccc2N)c1C | 16 | > 200000 |
| Cc1noc(NS(=O)(=O)c2ccccc2-c2ccc(CC(C)C)cc2NC=O)c1C | 17 | 6900 |
| Cc1noc(NS(=O)(=O)c2ccccc2-c2ccc(SC(C)C)cc2)c1C | 39 | 5700 |
| Cc1noc(NS(=O)(=O)c2ccccc2-c2ccc(C(C)C)cc2)c1C | 50 | 19000 |
| Cc1noc(NS(=O)(=O)c2ccccc2-c2ccc(C(=O)O)cc2)c1C |  | > 200000 |
| Cc1noc(NS(=O)(=O)c2ccccc2-c2cccc(N(C)C)c2)c1C | 112 | > 200000 |
| Cc1noc(NS(=O)(=O)c2cc(OCc3ccccc3)ccc2-c2ccc(CC(C)C)cc2)c1C | > 20000 | > 200000 |

| Compound | Ki [1] [nM] | Ki [2] [nM] |
| --- | --- | --- |
| Cc1noc(NS(=O)(=O)c2ccccc2-c2ccc(N(C)C)cc2)c1C | 54 | 6000 |
| COc1cc(OC)nc(NS(=O)(=O)c2ccccc2-c2ccc(CC(C)C)cc2)n1 | 3900 | 50000 |
| Cc1noc(NS(=O)(=O)c2ccccc2-c2ccc(CC(C)C)cc2F)c1C | 20 | 12000 |
| Cc1noc(NS(=O)(=O)c2ccccc2-c2ccc(CC(C)C)cc2NCC(=O)O)c1C | 89 | 12000 |
| Cc1ccc(-c2ccccc2S(=O)(=O)Nc2onc(C)c2C)cc1 | 55 | 23000 |
| Cc1noc(NS(=O)(=O)c2ccccc2-c2cccc(CC(C)C)c2)c1C | 190 | 5600 |
| Cc1cc(CC(C)C)ccc1-c1ccccc1S(=O)(=O)Nc1onc(C)c1C | 5 | 19000 |
| Cc1noc(NS(=O)(=O)c2ccc(NCC(=O)O)cc2-c2ccc(CC(C)C)cc2)c1C | 550 | 1900 |
| Cc1noc(NS(=O)(=O)c2ccccc2-c2ccc(CC(C)(C)C)cc2)c1C | 110 | 4100 |
| COc1ccc(S(=O)(=O)Nc2onc(C)c2C)c(-c2ccc(CC(C)C)cc2)c1 | 370 | 6200 |
| Cc1noc(NS(=O)(=O)c2ccc(N)cc2-c2ccc(CC(C)C)cc2)c1C | 14 | 2100 |
| Cc1noc(NS(=O)(=O)c2ccccc2-c2ccccc2N(C)C)c1C | 103 | > 200000 |
| COc1cccc(S(=O)(=O)Nc2onc(C)c2C)c1-c1ccc(CC(C)C)cc1 | 16 | 2000 |
| COc1ccc(-c2ccccc2S(=O)(=O)Nc2onc(C)c2C)cc1 | 33 | 250000 |
| Cc1noc(NS(=O)(=O)c2ccccc2-c2ccc(CC(C)C)cc2O)c1C | 8 | 9800 |
| Cc1noc(NS(=O)(=O)c2ccccc2-c2ccc(CC(C)C)cc2CN)c1C | 100 | 9600 |
| Cc1noc(NS(=O)(=O)c2ccccc2-c2cccc(N)c2)c1C | 62 | > 200000 |
| Cc1onc(NS(=O)(=O)c2ccccc2-c2ccc(CC(C)C)cc2)c1C | 13 | 2000 |
| Cc1noc(NS(=O)(=O)c2ccccc2F)c1C | 4700 |  |
| CC(C)C[C@@H]1NC(=O)[C@@H](C(C)C)NC(=O)[C@@H]2CCCN2C(=O)[C@@H](CC(=O)O)NC(=O)[C@@H](Cc2c[nH]c3ccccc23)NC1=O [BQ-123] (HELM PEPTIDE1{L.[dW].[dD].P.[dV]}$PEPTIDE1,PEPTIDE1,1:R1-5:R2$$$V2.0) | 40 |  |
